Measured values as given in patent US9233982B2, “Spiro tetrahydro—benzothiophen derivatives useful for the treatment neurodegenerative diseases” (Ares Trading S.A., priority 2012, dated 2016).
Structures can show the parent of a compound that is named as a salt.

How the values were obtained:
BACE-1 [1] = target: T1, BACE-1 (Homo sapiens, UniProt P56817); experiment: HTRF cell based assay, Aβ1-40 peptide secreted by recombinant HEK293 cells; parameters: endogenous in cells; host or cells: recombinant HEK293 cells engineered to over-produce APP; settings: for EC50: Aβ1-40 secretion, recombinant HEK293 cells producing APP, overnight treatment, read-out: Cellular assay EC50 Ranges
Method: The cell based assay used to support the program utilized HTRF assay reagents from Cisbio (Catalogue number 62B40PEB) to quantify the amount of Aβ1-40 peptide secreted by recombinant HEK293 cells. The cells were engineered to produce high quantities of APP, the precursor for Aβ1-40 peptide, under hygromycin selection pressure. Briefly, cells were plated into 384-well microplates and allowed to settle for 2 hours prior to compound addition. Following overnight treatment with compound, the media containing secreted peptide was transferred into a low volume assay plate for quantification with HTRF immunoassay reagents. Adhering to the manufacturers protocol for quantification, a TR-FRET signal is obtained in the presence of the Aβ1-40 peptide following addition of a cryptate conjugated antibody and an XL665 conjugated antibody, each raised to a different epitope of the Aβ1-40 peptide. A low FRET signal is obtained when cells are treated with compounds that inhibit APP cleavage and peptide secretion.

BACE-1 [2] = target: T1, BACE-1; experiment: LanthaScreen BACE1 biochemical assay (TR-FRET)
Method: Biochemical Assay to Assess Compounds for Inhibition of BACE-1
The LanthaScreen™ BACE1 assay kit from Invitrogen (Catalogue number PV4748) was used as the primary assay in the screening cascade.
Briefly, the test compound was incubated with the enzyme and substrate for 1 hour at room temperature in a reaction volume of 15 μl and then 5 nM terbium labelled anti-biotin antibody was added to stop the reaction and the solution incubated for a further 1 hour at room temperature. The microplate was read on an Envision plate reader fitted with a photometric 340 nm excitation filter and the amount of substrate that had been cleaved was represented by the TR-FRET ratio, calculated by dividing the Fluorescein emission signal (520 nm) by the Terbium emission signal (495 nm).

T1 sequence (P56817 46-501): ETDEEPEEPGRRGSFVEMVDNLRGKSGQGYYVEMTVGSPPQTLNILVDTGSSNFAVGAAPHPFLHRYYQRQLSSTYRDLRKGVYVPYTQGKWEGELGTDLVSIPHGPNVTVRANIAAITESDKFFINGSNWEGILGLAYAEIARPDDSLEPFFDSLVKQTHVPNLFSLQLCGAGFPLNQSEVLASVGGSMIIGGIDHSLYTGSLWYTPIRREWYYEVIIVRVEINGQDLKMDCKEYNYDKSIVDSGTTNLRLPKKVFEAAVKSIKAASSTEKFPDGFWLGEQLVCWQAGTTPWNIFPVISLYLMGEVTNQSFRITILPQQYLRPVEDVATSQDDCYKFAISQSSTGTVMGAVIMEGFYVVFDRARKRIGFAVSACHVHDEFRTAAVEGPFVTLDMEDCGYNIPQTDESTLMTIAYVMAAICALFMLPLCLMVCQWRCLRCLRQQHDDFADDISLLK

Row | Compound | EC50 (BACE-1 [1]) [µM] | IC50 (BACE-1 [2]) [µM] | IC50 (BACE-1 [1]; reference inhibitor, inhibition of Aβ1-40 peptide secretion, 30,000 cells per well) [µM]
1 | NC1=NC2(CCS1)CC(c1ccccc1)Cc1sc(-c3cccc(Br)c3)cc12 (racemic) [Example 43] | 5 to 50 | 5 to 65 | 
2 | COc1ccc(-c2cccc(-c3cc4c(s3)CC(c3ccccc3)CC43CCSC(N)=N3)c2)cc1 (racemic) [Example 44] | 5 to 50 | 1 to 5 | 
3 | COCC1Cc2sc(-c3cccc(C#N)c3)cc2C2(CCSC(N)=N2)C1 (racemic) [Example 45, 3-(2′-amino-6-(methoxymethyl)-5′,6,6′,7-tetrahydro-5H-spiro[benzo[b]thiophene-4,4′-[1,3]thiazine]-2-yl)benzonitrile, Hydrochloride Salt] | 1 to 5 | 5 to 65 | 
4 | N#Cc1cccc(-c2cc3c(s2)CCC(Cc2ccccc2)C32CCSC(N)=N2)c1 (racemic) [Example 47, 3-(2′-amino-5-benzyl-5′,6,6′,7-tetrahydro-5H-spiro[benzo[b]thiophene-4,4′-[1,3]thiazine]-2-yl)benzonitrile] | 1 to 5 | 5 to 65 | 
5 | COc1ccc(CC2CCc3sc(-c4cccc(C#N)c4)cc3C23CCSC(N)=N3)cc1 (racemic) [Example 48] | 5 to 50 | 1 to 5 | 
6 | CN1C(=O)[C@]2(CCCc3sc(-c4cccc(C#N)c4)cc32)N=C1N (single isomer, unassigned) [Example 50] | 1 to 5 | 5 to 65 | 
7 | CN1C(=O)[C@@]2(CCCc3sc(-c4cccc(C#N)c4)cc32)N=C1N (single isomer, unassigned) [Example 51] | ≤ 1 | < 1 | 
8 | N#Cc1cccc(-c2cc3c(s2)CCCC32CCSC(N)=N2)c1 (stereo in doubt) [Example 2, (R)-3-(2′-amino-5′,6,6′,7-tetrahydro-5H-spiro[benzo[b]thiophene-4,4′-[1,3]thiazine]-2-yl)benzonitrile] | ≤ 1 | < 1 | 
9 | N#Cc1cccc(-c2cc3c(s2)CCCC32CCSC(N)=N2)c1 (stereo not drawn) [Example 1, 3-(2′-amino-5′,6,6′,7-tetrahydro-5H-spiro[benzo[b]thiophene-4,4′-[1,3]thiazine]-2-yl)benzonitrile, Formate Salt] | ≤ 1 | 1 to 5 | 
10 | NC1=NC2(CCCc3sc(-c4ccc(F)cc4)cc32)CCS1 (stereo not drawn) [Example 3] | 5 to 50 | 5 to 65 | 
11 | NC1=NC2(CCCc3sc(-c4cccnc4)cc32)CCS1 (stereo not drawn) [Example 4] | 5 to 50 | 5 to 65 | 
12 | COc1ccc(-c2cc3c(s2)CCCC32CCSC(N)=N2)cn1 (stereo not drawn) [Example 5] | 5 to 50 | 5 to 65 | 
13 | NC1=NC2(CCCc3sc(-c4ccc5c(c4)CCO5)cc32)CCS1 (stereo not drawn) [Example 6] | 5 to 50 | 5 to 65 | 
14 | NC1=NC2(CCCc3sc(-c4cncnc4)cc32)CCS1 (stereo not drawn) [Example 7] | 5 to 50 | 5 to 65 | 
15 | NC1=NC2(CCCc3sc(-c4ccc5c(c4)OCO5)cc32)CCS1 (stereo not drawn) [Example 8] | 5 to 50 | 5 to 65 | 
16 | CS(=O)(=O)c1cccc(-c2cc3c(s2)CCCC32CCSC(N)=N2)c1 (stereo not drawn) [Example 9] | 1 to 5 | 5 to 65 | 
17 | COc1ccc(C#N)cc1-c1cc2c(s1)CCCC21CCSC(N)=N1 (stereo not drawn) [Example 10] | ≤ 1 | 1 to 5 | 
18 | COc1cc(C#N)cc(-c2cc3c(s2)CCCC32CCSC(N)=N2)c1F (stereo not drawn) [Example 11] | 1 to 5 | 5 to 65 | 
19 | N#Cc1cc(F)cc(-c2cc3c(s2)CCCC32CCSC(N)=N2)c1 (stereo not drawn) [Example 12] | 1 to 5 | 5 to 65 | 
20 | COC(=O)c1cccc(-c2cc3c(s2)CCCC32CCSC(N)=N2)c1 (stereo not drawn) [Example 13] | 5 to 50 | 5 to 65 | 
21 | N#Cc1cc(-c2cc3c(s2)CCCC32CCSC(N)=N2)ccc1F (stereo not drawn) [Example 14] | 1 to 5 | 1 to 5 | 
22 | N#Cc1ccc(F)c(-c2cc3c(s2)CCCC32CCSC(N)=N2)c1 (stereo not drawn) [Example 15] | ≤ 1 | 1 to 5 | 
23 | C[C@H](NC(=O)Cc1cc(F)cc(F)c1)C(=O)N[C@@H]1C(=O)N(C)c2ccccc2-c2ccccc21 [reference compound] |  |  | 0.0002
